# According to ChEMBL document CHEMBL4673219, “Novel 5,6-disubstituted pyrrolo[2,3-d]pyrimidine derivatives as broad spectrum antiproliferative agents: Synthesis, cell based assays, kinase profile and molecular docking study” (Bioorg Med Chem, 2018):
# Key:
# TK-10 [1] = assay: Growth inhibition of human TK-10 cells assessed as growth percentage at 10 uM incubated for 48 hrs by sulforhodamine B assay relative to control; type: functional; details: read-out: Activity
# UACC-257 [2] = assay: Growth inhibition of human UACC-257 cells assessed as growth percentage at 10 uM incubated for 48 hrs by sulforhodamine B assay relative to control; type: functional; details: read-out: Activity
# NCI-H322M = assay: Growth inhibition of human NCI-H322M cells assessed as growth percentage at 10 uM incubated for 48 hrs by sulforhodamine B assay relative to control; type: functional; details: read-out: Activity
# [3] = biological target: Fibroblast growth factor receptor 1 (Homo sapiens) (UniProt P11362); assay: Inhibition of human FGFR1 at 10 uM using myelin basic protein as substrate incubated for 40 mins in presence of [gamma33P]ATP by scintillation counting method relative to control
# Chain of Fibroblast growth factor receptor 1 (Homo sapiens) (P11362 22-822 limits assumed): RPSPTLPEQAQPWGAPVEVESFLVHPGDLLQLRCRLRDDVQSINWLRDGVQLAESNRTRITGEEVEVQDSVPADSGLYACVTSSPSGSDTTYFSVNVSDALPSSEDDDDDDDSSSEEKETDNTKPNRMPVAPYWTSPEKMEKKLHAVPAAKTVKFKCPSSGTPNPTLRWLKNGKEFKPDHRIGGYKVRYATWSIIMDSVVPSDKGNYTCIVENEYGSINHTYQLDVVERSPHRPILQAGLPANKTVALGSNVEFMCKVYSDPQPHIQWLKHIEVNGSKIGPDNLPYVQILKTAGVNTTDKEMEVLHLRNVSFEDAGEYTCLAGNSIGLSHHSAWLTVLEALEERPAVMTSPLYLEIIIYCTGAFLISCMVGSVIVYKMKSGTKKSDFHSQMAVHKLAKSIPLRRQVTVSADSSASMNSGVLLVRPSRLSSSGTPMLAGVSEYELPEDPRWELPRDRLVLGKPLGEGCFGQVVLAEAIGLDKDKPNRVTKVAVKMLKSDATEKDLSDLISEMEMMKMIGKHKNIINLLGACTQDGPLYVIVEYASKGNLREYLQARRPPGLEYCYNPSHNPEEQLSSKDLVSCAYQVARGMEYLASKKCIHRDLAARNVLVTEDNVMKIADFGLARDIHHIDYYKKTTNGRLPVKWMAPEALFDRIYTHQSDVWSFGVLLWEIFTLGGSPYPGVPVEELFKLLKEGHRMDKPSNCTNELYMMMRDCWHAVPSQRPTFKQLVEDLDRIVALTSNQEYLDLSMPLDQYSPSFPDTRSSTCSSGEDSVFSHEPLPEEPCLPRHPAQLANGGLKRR
# DU-145 = assay: Growth inhibition of human DU-145 cells incubated for 48 hrs by sulforhodamine B assay; type: functional; details: for GI50 / TGI: DU-145
# RXF 393 = assay: Growth inhibition of human RXF 393 cells incubated for 48 hrs by sulforhodamine B assay; type: functional
# SF-539 = assay: Growth inhibition of human SF-539 cells incubated for 48 hrs by sulforhodamine B assay; type: functional
# SW-620 [4] = assay: Growth inhibition of human SW-620 cells incubated for 48 hrs by sulforhodamine B assay; type: functional; details: for CC50: read-out: LC50 (the source's name)
# HCT-15 [5] = assay: Growth inhibition of human HCT-15 cells incubated for 48 hrs by sulforhodamine B assay; type: functional; details: for TGI: HCT-15
# MOLT-4 = assay: Growth inhibition of human MOLT-4 cells incubated for 48 hrs by sulforhodamine B assay; type: functional
# T47D = assay: Growth inhibition of human T47D cells assessed as growth percent at 0.1 uM incubated for 48 hrs by sulforhodamine B assay relative to control; type: functional; details: read-out: Activity
# MDA-MB-231 = assay: Growth inhibition of human MDA-MB-231/ATCC cells assessed as growth percentage at 100 uM incubated for 48 hrs by sulforhodamine B assay relative to control; type: functional; details: read-out: Activity
# MCF7 [6] = assay: Growth inhibition of human MCF7 cells assessed as growth percentage at 100 uM incubated for 48 hrs by sulforhodamine B assay relative to control; type: functional; details: read-out: Activity
# SK-OV-3 = assay: Growth inhibition of human SK-OV-3 cells assessed as growth percentage at 100 uM incubated for 48 hrs by sulforhodamine B assay relative to control; type: functional; details: read-out: Activity
# UACC-62 [7] = assay: Growth inhibition of human UACC-62 cells assessed as growth percentage at 100 uM incubated for 48 hrs by sulforhodamine B assay relative to control; type: functional; details: read-out: Activity
# Malme-3M = assay: Growth inhibition of human Malme-3M cells assessed as growth percentage at 100 uM incubated for 48 hrs by sulforhodamine B assay relative to control; type: functional; details: read-out: Activity
# NCI-H460 = assay: Growth inhibition of human NCI-H460 cells assessed as growth percentage at 100 uM incubated for 48 hrs by sulforhodamine B assay relative to control; type: functional; details: read-out: Activity
# BT-549 = assay: Growth inhibition of human BT-549 cells assessed as growth percentage at 1 uM incubated for 48 hrs by sulforhodamine B assay relative to control; type: functional; details: read-out: Activity
# MCF7 [8] = assay: Growth inhibition of human MCF7 cells assessed as growth percentage at 1 uM incubated for 48 hrs by sulforhodamine B assay relative to control; type: functional; details: read-out: Activity
# CAKI-1 [9] = assay: Growth inhibition of human CAKI-1 cells assessed as growth percentage at 1 uM incubated for 48 hrs by sulforhodamine B assay relative to control; type: functional; details: read-out: Activity
# UACC-257 [10] = assay: Growth inhibition of human UACC-257 cells assessed as growth percentage at 1 uM incubated for 48 hrs by sulforhodamine B assay relative to control; type: functional; details: read-out: Activity
# SK-MEL-5 = assay: Growth inhibition of human SK-MEL-5 cells assessed as growth percentage at 1 uM incubated for 48 hrs by sulforhodamine B assay relative to control; type: functional; details: read-out: Activity
# MDA-MB-435 = assay: Growth inhibition of human MDA-MB-435 cells assessed as growth percentage at 1 uM incubated for 48 hrs by sulforhodamine B assay relative to control; type: functional; details: read-out: Activity
# SNB-19 = assay: Growth inhibition of human SNB-19 cells assessed as growth percentage at 1 uM incubated for 48 hrs by sulforhodamine B assay relative to control; type: functional; details: read-out: Activity
# SW-620 [11] = assay: Growth inhibition of human SW-620 cells assessed as growth percentage at 1 uM incubated for 48 hrs by sulforhodamine B assay relative to control; type: functional; details: read-out: Activity
# HCT-15 [12] = assay: Growth inhibition of human HCT-15 cells assessed as growth percentage at 1 uM incubated for 48 hrs by sulforhodamine B assay relative to control; type: functional; details: read-out: Activity
# NCI-H226 [13] = assay: Growth inhibition of human NCI-H226 cells assessed as growth percentage at 1 uM incubated for 48 hrs by sulforhodamine B assay relative to control; type: functional; details: read-out: Activity
# HOP-62 = assay: Growth inhibition of human HOP-62 cells assessed as growth percentage at 1 uM incubated for 48 hrs by sulforhodamine B assay relative to control; type: functional; details: read-out: Activity
# UO-31 = assay: Growth inhibition of human UO-31 cells assessed as growth percentage at 0.1 uM incubated for 48 hrs by sulforhodamine B assay relative to control; type: functional; details: read-out: Activity
# TK-10 [14] = assay: Growth inhibition of human TK-10 cells assessed as growth percentage at 0.1 uM incubated for 48 hrs by sulforhodamine B assay relative to control; type: functional; details: read-out: Activity
# CAKI-1 [15] = assay: Growth inhibition of human CAKI-1 cells assessed as growth percentage at 0.1 uM incubated for 48 hrs by sulforhodamine B assay relative to control; type: functional; details: read-out: Activity
# UACC-62 [16] = assay: Growth inhibition of human UACC-62 cells assessed as growth percentage at 0.1 uM incubated for 48 hrs by sulforhodamine B assay relative to control; type: functional; details: read-out: Activity
# SW-620 [17] = assay: Growth inhibition of human SW-620 cells assessed as growth percentage at 0.1 uM incubated for 48 hrs by sulforhodamine B assay relative to control; type: functional; details: read-out: Activity
# MDA-MB-468 = assay: Growth inhibition of human MDA-MB-468 cells assessed as growth percentage at 0.01 uM incubated for 48 hrs by sulforhodamine B assay relative to control; type: functional; details: read-out: Activity
# Hs-578T = assay: Growth inhibition of human Hs-578T cells assessed as growth percentage at 0.01 uM incubated for 48 hrs by sulforhodamine B assay relative to control; type: functional; details: read-out: Activity
# U-251 = assay: Growth inhibition of human U-251 cells assessed as growth percentage at 0.01 uM incubated for 48 hrs by sulforhodamine B assay relative to control; type: functional; details: read-out: Activity
# COLO 205 = assay: Growth inhibition of human COLO 205 cells assessed as growth percentage at 0.01 uM incubated for 48 hrs by sulforhodamine B assay relative to control; type: functional; details: read-out: Activity
# NCI-H226 [18] = assay: Growth inhibition of human NCI-H226 cells assessed as growth percentage at 0.01 uM incubated for 48 hrs by sulforhodamine B assay relative to control; type: functional; details: read-out: Activity
compound,measurement,setting,value
Nc1nc2[nH]c(CN3CCN(c4cc(Cl)cc(Cl)c4)CC3)c(CN3CCN(c4cc(Cl)cc(Cl)c4)CC3)c2c(=O)[nH]1,growth at 10 µM,TK-10 [1],77.1%
same,growth at 10 µM,UACC-257 [2],97.6%
same,growth at 10 µM,NCI-H322M,64.3%
same,inhibition,[3],-8.65%
same,GI50,DU-145,1.92 µM
same,TGI,DU-145,3.46 µM
same,CC50,"DU-145; DU-145, 48 h, read-out: LC50 (the source's name)",6.24 µM
same,GI50,RXF 393,1.58 µM
same,TGI,RXF 393,3.07 µM
same,GI50,SF-539,1.72 µM
same,TGI,SF-539,3.26 µM
same,GI50,"SW-620 [4]; Homo sapiens, SW-620, 48 h",1.72 µM
same,TGI,"SW-620 [4]; Homo sapiens, SW-620, 48 h",3.5 µM
same,CC50,"SW-620 [4]; Homo sapiens, SW-620, 48 h",7.12 µM
same,TGI,HCT-15 [5]; Homo sapiens,4.05 µM
same,GI50,"HCT-15 [5]; Homo sapiens, HCT-15, 48 h",1.93 µM
same,GI50,"MOLT-4; Homo sapiens, MOLT-4, 48 h",2.58 µM
same,TGI,"MOLT-4; Homo sapiens, MOLT-4, 48 h",8.56 µM
same,growth at 0.1 µM,T47D,90%
same,growth at 100 µM,MDA-MB-231,-30%
same,growth at 100 µM,MCF7 [6],-48%
same,growth at 100 µM,SK-OV-3,-74%
same,growth at 100 µM,UACC-62 [7],-49%
same,growth at 100 µM,Malme-3M,-42%
same,growth at 100 µM,NCI-H460,-58%
same,growth at 1 µM,BT-549,85%
same,growth at 1 µM,MCF7 [8],79%
same,growth at 1 µM,CAKI-1 [9],91%
same,growth at 1 µM,UACC-257 [10],93%
same,growth at 1 µM,SK-MEL-5,89%
same,growth at 1 µM,MDA-MB-435,88%
same,growth at 1 µM,SNB-19,89%
same,growth at 1 µM,SW-620 [11],88%
same,growth at 1 µM,HCT-15 [12],94%
same,growth at 1 µM,NCI-H226 [13],93%
same,growth at 1 µM,HOP-62,85%
same,growth at 0.1 µM,UO-31,92%
same,growth at 0.1 µM,TK-10 [14],103%
same,growth at 0.1 µM,CAKI-1 [15],90%
same,growth at 0.1 µM,UACC-62 [16],102%
same,growth at 0.1 µM,SW-620 [17],94%
same,growth at 0.01 µM,MDA-MB-468,97%
same,growth at 0.01 µM,Hs-578T,89%
same,growth at 0.01 µM,U-251,99%
same,growth at 0.01 µM,COLO 205,95%
same,growth at 0.01 µM,NCI-H226 [18],95%
CCCCCCCC(=O)Nc1nc2[nH]c(CN3CCN(Cc4cccc(F)c4)CC3)c(CN3CCN(Cc4cccc(F)c4)CC3)c2c(=O)[nH]1,growth at 10 µM,TK-10 [1],-65%
same,growth at 10 µM,UACC-257 [2],-18.5%
same,growth at 10 µM,NCI-H322M,-41.2%
same,inhibition,[3],54.5%
same,GI50,DU-145,1.1 µM
same,TGI,DU-145,2.42 µM
same,GI50,RXF 393,0.51 µM
same,LC50 (concentration killing 50% of cells),RXF 393,4.45 µM
same,TGI,RXF 393,1.74 µM
same,GI50,SF-539,1.56 µM
same,GI50,SW-620 [4]; 48 h,0.19 µM
same,TGI,SW-620 [4]; 48 h,0.38 µM
same,CC50,SW-620 [4]; 48 h,0.74 µM
same,GI50,"SW-620 [4]; Homo sapiens, SW-620, 48 h",0.191 µM
same,TGI,"SW-620 [4]; Homo sapiens, SW-620, 48 h",0.377 µM
same,CC50,"SW-620 [4]; Homo sapiens, SW-620, 48 h",0.744 µM
same,GI50,HCT-15 [5]; 48 h,0.3 µM
same,TGI,HCT-15 [5]; Homo sapiens,1.01 µM
same,GI50,"HCT-15 [5]; Homo sapiens, HCT-15, 48 h",0.295 µM
same,CC50,"HCT-15 [5]; Homo sapiens, HCT-15, read-out: LC50 (the source's name)",3.75 µM
same,GI50,MOLT-4; 48 h,0.26 µM
same,LC50 (concentration killing 50% of cells),MOLT-4; 48 h,> 100 µM
same,TGI,MOLT-4; 48 h,0.74 µM
same,GI50,"MOLT-4; Homo sapiens, MOLT-4, 48 h",0.258 µM
same,LC50 (concentration killing 50% of cells),"MOLT-4; Homo sapiens, MOLT-4, 48 h",100 µM
same,TGI,"MOLT-4; Homo sapiens, MOLT-4, 48 h",0.736 µM
same,growth at 0.1 µM,T47D,88%
same,growth at 100 µM,MDA-MB-231,-66%
same,growth at 100 µM,MCF7 [6],-63%
same,growth at 100 µM,SK-OV-3,-99%
same,growth at 100 µM,UACC-62 [7],-90%
same,growth at 100 µM,Malme-3M,-73%
same,growth at 100 µM,NCI-H460,-85%
same,growth at 1 µM,BT-549,63%
same,growth at 1 µM,MCF7 [8],-51%
same,growth at 1 µM,CAKI-1 [9],70%
same,growth at 1 µM,UACC-257 [10],-48%
same,growth at 1 µM,SK-MEL-5,84%
same,growth at 1 µM,MDA-MB-435,10%
same,growth at 1 µM,SNB-19,82%
same,growth at 1 µM,SW-620 [11],-72%
same,growth at 1 µM,HCT-15 [12],1%
same,growth at 1 µM,NCI-H226 [13],91%
same,growth at 1 µM,HOP-62,75%
same,growth at 0.1 µM,UO-31,84%
same,growth at 0.1 µM,TK-10 [14],96%
same,growth at 0.1 µM,CAKI-1 [15],85%
same,growth at 0.1 µM,UACC-62 [16],100%
same,growth at 0.1 µM,SW-620 [17],97%
same,growth at 0.01 µM,MDA-MB-468,92%
same,growth at 0.01 µM,Hs-578T,97%
same,growth at 0.01 µM,U-251,97%
same,growth at 0.01 µM,COLO 205,92%
same,growth at 0.01 µM,NCI-H226 [18],94%
